Patent US8598170B2, “Dual-acting oxazole antihypertensive agents” (Theravance, Inc., priority 2009, dated 2013)

Experiments:
[1] = biological target: T1, NEP enzyme (Homo sapiens, UniProt P08473); test: In vitro NEP enzyme inhibition assay (fluorogenic peptide substrate); type: biochemical; conditions: read-out: pIC50 for the NEP enzyme (converted)
T1 construct: purchased R&D Systems, Minneapolis, Minn; 1182-ZN
Procedure: The inhibitory activities of compounds at human and rat NEP and human ACE were determined using in vitro assays as described below.
Rat NEP was prepared from the kidneys of adult Sprague Dawley rats. Whole kidneys were washed in cold PBS and brought up in ice-cold lysis buffer (1% Triton X-114, 150 mM NaCl, 50 mM Tris pH 7.5; Bordier (1981) J. Biol. Chem. 256:1604-1607) in a ratio of 5 mL of buffer for every gram of kidney. Samples were homogenized using a polytron hand held tissue grinder on ice. Homogenates were centrifuged at 1000×g in a swinging bucket rotor for 5 minutes at 3° C. The pellet was resuspended in 20 mL of ice cold lysis buffer and incubated on ice for 30 minutes. […] Protein concentrations were quantitated using a BCA detection system with BSA as a standard. […]
The assays were performed in 384-well white opaque plates at room temperature using the respective fluorogenic peptides at a concentration of 10 μM in assay buffer (50 mM Tris/HCl at 25° C., 100 mM NaCl, 0.01% Tween-20, 1 μM Zn, 0.025% BSA). […] The rat NEP enzyme preparation was used at a concentration that yielded quantitative proteolysis of 3 μM of Mca-RRL within 20 minutes at room temperature. […]
Plates were read on a fluorometer with excitation and emission wavelengths set to 320 nm and 405 nm, respectively. […]

[2] = biological target: T2, human AT1 receptor (Homo sapiens, UniProt P30556); test: AT1 radioligand binding assay ([Eu]AngII displacement, CHO-K1 membranes); conditions: read-out: pKi at the AT1 receptor (converted)
T2 construct: expressed in transfected cells; host or cells: CHO-K1
T2 sequence (P30556 1-359): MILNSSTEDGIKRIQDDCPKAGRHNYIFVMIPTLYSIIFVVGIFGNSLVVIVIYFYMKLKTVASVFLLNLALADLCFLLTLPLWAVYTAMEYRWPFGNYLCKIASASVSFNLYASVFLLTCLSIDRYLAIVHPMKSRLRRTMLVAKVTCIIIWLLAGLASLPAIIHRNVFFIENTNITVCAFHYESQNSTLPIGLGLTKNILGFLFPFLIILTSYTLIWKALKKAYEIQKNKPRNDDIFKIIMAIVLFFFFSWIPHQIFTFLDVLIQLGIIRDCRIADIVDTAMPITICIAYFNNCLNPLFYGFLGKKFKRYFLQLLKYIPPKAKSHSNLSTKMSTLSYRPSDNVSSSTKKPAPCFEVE
Procedure: These in vitro assays were used to assess the ability of test compounds to bind to the AT1 and the AT2 receptors.
Chinese hamster ovary (CHO-K1) derived cell lines stably expressing the cloned human AT1 or AT2 receptors, respectively, were grown in HAM's-F 12 medium supplemented with 10% fetal bovine serum, 10 μg/ml penicillin/streptomycin, and […] in a 5% CO2 humidified incubator at 37° C. AT2 receptor expressing cells were grown in the additional presence of 100 nM PD123,319 (AT2 antagonist). When cultures reached 80-95% confluence, the cells were washed thoroughly in PBS and lifted with 5 mM EDTA. Cells were pelleted by centrifugation and snap frozen in MeOH-dry ice and stored at −80° C. until further use.
For membrane preparation, cell pellets were resuspended in lysis buffer (25 mM Tris/HCl pH 7.5 at 4° C., 1 mM EDTA, and one tablet of Complete Protease Inhibitor Cocktail Tablets with 2 mM EDTA per 50 mL buffer (Roche cat. #1697498, Roche Molecular Biochemicals, Indianapolis, Ind.)) and homogenized using a tight-fitting Dounce glass homogenizer (10 strokes) on ice. The homogenate was centrifuged at 1000×g, the supernatant was collected and centrifuged at 20,000×g. […] Protein concentration of the membrane suspension was determined by the method described in Bradford (1976) Anal Biochem. 72:248-54. […]

T1 sequence (P08473 52-750 limits assumed): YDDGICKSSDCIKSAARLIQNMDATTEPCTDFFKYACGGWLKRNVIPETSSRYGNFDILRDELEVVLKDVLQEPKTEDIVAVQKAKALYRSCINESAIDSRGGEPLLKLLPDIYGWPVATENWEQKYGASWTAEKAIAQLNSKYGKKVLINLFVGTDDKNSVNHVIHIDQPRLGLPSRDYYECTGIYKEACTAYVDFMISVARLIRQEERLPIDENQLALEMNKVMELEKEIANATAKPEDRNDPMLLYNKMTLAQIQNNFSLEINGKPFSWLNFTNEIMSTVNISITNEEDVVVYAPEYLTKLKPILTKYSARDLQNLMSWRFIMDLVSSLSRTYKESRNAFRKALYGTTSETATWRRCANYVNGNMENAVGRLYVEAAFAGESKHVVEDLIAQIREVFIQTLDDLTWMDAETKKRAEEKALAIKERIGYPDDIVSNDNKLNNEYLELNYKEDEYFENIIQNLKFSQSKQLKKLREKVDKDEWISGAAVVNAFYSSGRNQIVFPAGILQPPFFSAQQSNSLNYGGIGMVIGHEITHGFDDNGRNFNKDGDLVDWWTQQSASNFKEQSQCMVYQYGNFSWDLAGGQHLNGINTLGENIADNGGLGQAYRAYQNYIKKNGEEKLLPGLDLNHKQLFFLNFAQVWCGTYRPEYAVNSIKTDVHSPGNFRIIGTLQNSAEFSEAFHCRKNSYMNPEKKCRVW

SMILES: CCCc1oc(C(=O)N[C@H](Cc2ccccc2)[C@@H](O)C(=O)O)nc1Cc1ccc(-c2ccccc2-c2nnn[nH]2)cc1 [Example 1, (2R,3R)-2-Hydroxy-4-phenyl-3-({5-propyl-4-[2′-(1H-tetrazol-5-yl)-biphenyl-4-ylmethyl]-oxazole-2-carbonyl}amino)butyric Acid]
- IC50 [1]: < 1000 nM
- Ki [2]: < 31.6 nM
